In patent US20230295234A1, “ANTIMICROBIAL PEPTIDOMIMETICS” (SPEXIS AG, priority 2020, published 2023):
Peptide text beside a SMILES is read from it.

Columns and labels:
[1] = system: human red blood cells (hRBC); assay: Hemolysis of human red blood cells; type: cell-based; conditions: red cells of human, 1 h
How it was run: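 Percent hemolysis is OD540 of peptide-treated supernatant relative to water-lysed cells. Each peptide was tested at 200 μg/mL against 20% (v/v) washed human erythrocytes. Incubation was 1 h at 37 °C, 300 rpm.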

[2] = system: Klebsiella pneumoniae SSI3010; conditions: SSI3010
How it was run: (§1)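 Peptides were made up as 1 mg/mL stocks in sterile water. Colonies in 0.85% saline were set to 0.5 McFarland, then diluted in cation-adjusted Mueller-Hinton II broth to about 5×10^5 CFU/mL. Inoculum was combined with two-fold serial peptide dilutions in water containing 0.002% (final) polysorbate 80.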

[3] = system: Escherichia coli ATCC 25922; conditions: ATCC 25922
How it was run: as §1

[4] = system: Escherichia coli MCR-1 Af 45; conditions: MCR-1 Af 45
How it was run: as §1

Row | Klebsiella pneumoniae SSI3010 MIC [2] | Escherichia coli ATCC 25922 MIC [3] | Escherichia coli MCR-1 Af 45 MIC [4] | SMILES | Hemolysis at 0.2 g/L [1]
1 | 0.25 µg/mL | 0.25 µg/mL | 0.125 µg/mL | CC[C@H](C)[C@H](NC(=O)[C@@H]1C[C@@H](N)CN1C(=O)[C@@H](NC(=O)[C@@H]1C[C@@H](O)CN1C(=O)[C@@H](N)CCCCN)C(C)C)C(=O)N[C@H](C(=O)N[C@@H](Cc1ccc(O)cc1)C(=O)N[C@@H]1C(=O)N[C@@H](CC(N)=O)C(=O)N[C@@H](CCCNC(=N)N)C(=O)N[C@@H](CCN)C(=O)N[C@@H]([C@@H](C)O)C(=O)N[C@H](CCN)C(=O)N[C@@H](CCCCN)C(=O)N[C@H](C(=O)N[C@@H](Cc2ccc(O)cc2)C(=O)N[C@@H](CCCNC(=N)N)C(=O)N[C@@H](Cc2ccc(O)cc2)C(=O)O)CSSC1(C)C)[C@@H](C)O [Example 57, Lys-Hyp-Val-Pro((4R)NH2)-Ile-Thr-Tyr-Pen-Asn-Arg-Dab-Thr-^DDab-Lys-Cys-Tyr-Arg-Tyr] (HELM PEPTIDE1{K.[Hyp].V.[N[C@@H]1C[C@@H](C(=O)[*:2])N([*:1])C1].I.T.Y.[Pen].N.R.[Dab].T.[NCC[C@@H](N[*:1])C(=O)[*:2]].K.C.Y.R.Y}$PEPTIDE1,PEPTIDE1,8:R3-15:R3$$$V2.0) | 0%
2 | 0.0625 µg/mL | 0.0625 µg/mL | 0.0625 µg/mL | CC[C@H](C)[C@H](NC(=O)CN(CCN)C(=O)[C@@H](NC(=O)[C@@H]1CCCN1C(=O)[C@H](CCCCN)NC(=O)[C@@H](N)CCCCN)C(C)C)C(=O)N[C@H](C(=O)N[C@@H](Cc1ccc(O)cc1)C(=O)N[C@H]1CSSC[C@@H](C(=O)N[C@@H](CCN)C(=O)N[C@@H](CCCNC(=N)N)C(=O)N[C@@H](Cc2ccc(O)cc2)C(=O)O)NC(=O)[C@H](CCCCN)NC(=O)[C@@H](CCN)NC(=O)[C@H]([C@@H](C)O)NC(=O)[C@H](CCN)NC(=O)[C@H](CCCNC(=N)N)NC(=O)[C@H](CC(N)=O)NC1=O)[C@@H](C)CC [Example 102, Lys-Lys-Pro-Val-Ndab-Ile-Ile-Tyr-Cys-Asn-Arg-Dab-Thr-^DDab-Lys-Cys-Dab-Arg-Tyr] (HELM PEPTIDE1{K.K.P.V.[NCCN(CC(=O)[*:2])[*:1]].I.I.Y.C.N.R.[Dab].T.[NCC[C@@H](N[*:1])C(=O)[*:2]].K.C.[Dab].R.Y}$PEPTIDE1,PEPTIDE1,9:R3-16:R3$$$V2.0) | 0%
